How the values were obtained:
[1] = molecular target: T1, 5-hydroxytryptamine receptor 5A (Homo sapiens, UniProt P47898); assay: Antagonist activity at human recombinant 5HT5A receptor expressed in HEK293-EBNA cells by [35S]GTP-gamma-S binding assay; type: functional, cell-based
[2] = Protein binding in mouse plasma; type: ADME, cell-free; conditions: read-out: PPB (converted)
[3] = molecular target: 5-hydroxytryptamine receptor 7 (Homo sapiens, UniProt P34969); assay: Displacement of [3H]LSD from human recombinant 5HT7 receptor expressed in HEK293-EBNA cells; type: cell-based
Chain of 5-hydroxytryptamine receptor 7 (P34969 whole entry): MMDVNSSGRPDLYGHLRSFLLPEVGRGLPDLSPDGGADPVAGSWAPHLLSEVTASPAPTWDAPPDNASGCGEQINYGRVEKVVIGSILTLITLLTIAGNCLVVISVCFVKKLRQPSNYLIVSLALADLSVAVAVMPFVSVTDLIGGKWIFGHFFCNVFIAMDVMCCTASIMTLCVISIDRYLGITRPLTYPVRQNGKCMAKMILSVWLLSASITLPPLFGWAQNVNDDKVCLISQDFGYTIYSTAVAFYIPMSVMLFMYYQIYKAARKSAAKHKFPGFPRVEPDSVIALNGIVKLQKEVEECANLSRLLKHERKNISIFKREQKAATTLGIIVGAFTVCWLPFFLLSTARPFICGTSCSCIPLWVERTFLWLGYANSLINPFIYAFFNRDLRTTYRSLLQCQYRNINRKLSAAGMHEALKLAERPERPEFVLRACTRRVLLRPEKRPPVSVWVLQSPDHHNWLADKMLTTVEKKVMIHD

[4] = molecular target: T2, 5-hydroxytryptamine receptor 2B (Homo sapiens, UniProt P41595); conditions: 1 uM
T2 sequence (P41595 whole entry): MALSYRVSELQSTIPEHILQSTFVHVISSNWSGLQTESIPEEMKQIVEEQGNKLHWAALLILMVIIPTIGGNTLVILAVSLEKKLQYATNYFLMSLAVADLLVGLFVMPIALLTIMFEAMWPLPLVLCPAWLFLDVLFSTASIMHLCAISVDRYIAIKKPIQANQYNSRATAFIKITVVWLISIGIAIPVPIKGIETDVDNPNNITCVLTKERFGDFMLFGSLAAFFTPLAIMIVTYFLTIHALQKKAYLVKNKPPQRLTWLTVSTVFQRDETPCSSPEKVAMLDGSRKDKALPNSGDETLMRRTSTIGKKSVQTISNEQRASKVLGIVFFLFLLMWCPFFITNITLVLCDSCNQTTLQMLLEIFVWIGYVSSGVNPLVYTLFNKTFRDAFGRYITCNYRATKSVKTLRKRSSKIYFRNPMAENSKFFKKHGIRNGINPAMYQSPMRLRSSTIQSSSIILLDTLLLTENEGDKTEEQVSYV
Description: Inhibition of 5HT2B receptor at 1 uM

[5] = molecular target: Histamine H1 receptor (Homo sapiens, UniProt P35367); assay: Binding affinity to histamine H1 receptor
Chain of Histamine H1 receptor (P35367 whole entry): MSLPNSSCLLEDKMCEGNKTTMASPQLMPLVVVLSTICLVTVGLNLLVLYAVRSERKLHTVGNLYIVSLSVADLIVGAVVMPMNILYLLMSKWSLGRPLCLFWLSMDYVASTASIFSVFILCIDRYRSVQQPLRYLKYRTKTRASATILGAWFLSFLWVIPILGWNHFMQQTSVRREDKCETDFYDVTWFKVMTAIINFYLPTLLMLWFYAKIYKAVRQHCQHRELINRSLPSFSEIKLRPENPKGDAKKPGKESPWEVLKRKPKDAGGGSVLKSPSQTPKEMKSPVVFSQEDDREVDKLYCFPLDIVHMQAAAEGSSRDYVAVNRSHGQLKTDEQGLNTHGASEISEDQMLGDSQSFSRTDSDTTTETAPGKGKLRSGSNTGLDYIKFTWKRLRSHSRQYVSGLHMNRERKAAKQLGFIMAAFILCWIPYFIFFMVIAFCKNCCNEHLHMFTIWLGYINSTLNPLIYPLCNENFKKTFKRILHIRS

[6] = molecular target: T3, 5-hydroxytryptamine receptor 2C (Homo sapiens, UniProt P28335); assay: Displacement of [3H]mesulergine from human recombinant 5HT2C receptor expressed in HEK293-EBNA cells; type: cell-based
T3 sequence (P28335 whole entry): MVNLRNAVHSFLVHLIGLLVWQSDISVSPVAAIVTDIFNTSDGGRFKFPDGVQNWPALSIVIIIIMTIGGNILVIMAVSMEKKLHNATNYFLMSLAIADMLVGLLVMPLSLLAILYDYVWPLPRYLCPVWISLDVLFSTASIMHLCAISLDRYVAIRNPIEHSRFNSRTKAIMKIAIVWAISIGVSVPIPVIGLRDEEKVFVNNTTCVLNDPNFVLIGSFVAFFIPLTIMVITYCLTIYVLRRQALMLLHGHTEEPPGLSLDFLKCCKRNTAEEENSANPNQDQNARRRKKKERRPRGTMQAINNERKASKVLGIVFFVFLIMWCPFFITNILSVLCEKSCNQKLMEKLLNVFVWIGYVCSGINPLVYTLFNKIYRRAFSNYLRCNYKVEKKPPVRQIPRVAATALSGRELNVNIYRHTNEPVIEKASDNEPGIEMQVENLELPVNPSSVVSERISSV

[7] = molecular target: 5-hydroxytryptamine receptor 1D (Homo sapiens, UniProt P28221); assay: Displacement of [3H]LSD from human recombinant 5HT1D receptor expressed in HEK293-EBNA cells; type: cell-based
Chain of 5-hydroxytryptamine receptor 1D (P28221 whole entry): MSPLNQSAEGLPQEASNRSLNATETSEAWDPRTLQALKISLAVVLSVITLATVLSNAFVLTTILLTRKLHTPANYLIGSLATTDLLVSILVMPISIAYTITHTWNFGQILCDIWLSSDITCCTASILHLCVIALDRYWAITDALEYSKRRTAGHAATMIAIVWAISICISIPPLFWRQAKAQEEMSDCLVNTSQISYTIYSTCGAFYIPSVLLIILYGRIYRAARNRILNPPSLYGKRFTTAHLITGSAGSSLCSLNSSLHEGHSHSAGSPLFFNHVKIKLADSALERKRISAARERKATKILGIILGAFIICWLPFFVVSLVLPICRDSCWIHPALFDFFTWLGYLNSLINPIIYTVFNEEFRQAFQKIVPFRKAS

[8] = molecular target: T4, 5-hydroxytryptamine receptor 1A (Homo sapiens, UniProt P08908); assay: Displacement of [3H]8-OH-DPAT from human recombinant 5HT1A receptor expressed in HEK293-EBNA cells; type: cell-based
T4 sequence (P08908 whole entry): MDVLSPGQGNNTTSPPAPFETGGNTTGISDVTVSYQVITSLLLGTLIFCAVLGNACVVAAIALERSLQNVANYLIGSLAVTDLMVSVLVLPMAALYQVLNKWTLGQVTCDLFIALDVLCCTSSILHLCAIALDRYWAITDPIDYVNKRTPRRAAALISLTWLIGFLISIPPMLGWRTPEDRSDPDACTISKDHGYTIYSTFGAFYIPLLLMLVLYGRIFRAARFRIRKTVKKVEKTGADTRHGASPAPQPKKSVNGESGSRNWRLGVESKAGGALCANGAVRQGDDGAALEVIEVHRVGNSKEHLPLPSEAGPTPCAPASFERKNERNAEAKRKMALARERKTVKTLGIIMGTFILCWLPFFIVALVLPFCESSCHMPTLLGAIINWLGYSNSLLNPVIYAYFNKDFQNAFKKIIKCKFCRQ

[9] = Inhibition of adrenergic alpha-1 receptor at 1 uM
[10] = Inhibition of adrenergic alpha-2 receptor
[11] = molecular target: T2, 5-hydroxytryptamine receptor 2B; assay: Inhibition of 5HT2B receptor
[12] = molecular target: T1, 5-hydroxytryptamine receptor 5A; assay: Displacement of [3H]LSD from human recombinant 5HT5A receptor expressed in HEK293-EBNA cells; type: cell-based
[13] = molecular target: T5, 5-hydroxytryptamine receptor 3A (Homo sapiens, UniProt P46098); assay: Binding affinity to human 5HT3 receptor
T5 sequence (P46098 whole entry): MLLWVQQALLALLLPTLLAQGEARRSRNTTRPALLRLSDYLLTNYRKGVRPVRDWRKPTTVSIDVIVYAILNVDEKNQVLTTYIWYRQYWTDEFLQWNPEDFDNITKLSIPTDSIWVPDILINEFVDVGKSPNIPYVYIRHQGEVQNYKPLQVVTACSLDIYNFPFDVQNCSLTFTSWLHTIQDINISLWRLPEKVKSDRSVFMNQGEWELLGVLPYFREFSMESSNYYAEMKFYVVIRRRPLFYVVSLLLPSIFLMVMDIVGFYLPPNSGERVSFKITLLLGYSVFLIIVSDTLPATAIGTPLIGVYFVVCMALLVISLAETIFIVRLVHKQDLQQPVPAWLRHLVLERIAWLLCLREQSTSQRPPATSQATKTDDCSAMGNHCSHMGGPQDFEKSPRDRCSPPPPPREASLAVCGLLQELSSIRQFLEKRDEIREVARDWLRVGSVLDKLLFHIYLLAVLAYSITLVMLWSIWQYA

[14] = molecular target: 5-hydroxytryptamine receptor 2A (Homo sapiens, UniProt P28223); assay: Displacement of [3H]ketanserin from human recombinant 5HT2A receptor expressed in HEK293-EBNA cells; type: cell-based
Chain of 5-hydroxytryptamine receptor 2A (P28223 whole entry): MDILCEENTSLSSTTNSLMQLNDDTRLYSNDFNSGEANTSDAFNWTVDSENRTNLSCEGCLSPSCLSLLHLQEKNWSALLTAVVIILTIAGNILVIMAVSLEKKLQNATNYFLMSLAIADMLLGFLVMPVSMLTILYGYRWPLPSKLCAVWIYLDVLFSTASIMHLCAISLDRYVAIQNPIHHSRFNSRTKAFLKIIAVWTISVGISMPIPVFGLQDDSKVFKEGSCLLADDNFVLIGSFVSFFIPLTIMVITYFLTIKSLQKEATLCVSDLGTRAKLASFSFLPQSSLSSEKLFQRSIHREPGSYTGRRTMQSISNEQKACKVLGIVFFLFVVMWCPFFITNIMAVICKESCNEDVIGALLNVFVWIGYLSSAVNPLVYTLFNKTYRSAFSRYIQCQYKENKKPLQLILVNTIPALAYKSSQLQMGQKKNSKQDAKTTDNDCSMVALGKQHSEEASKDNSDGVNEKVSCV

[15] = molecular target: 5-hydroxytryptamine receptor 6 (Homo sapiens, UniProt P50406); assay: Displacement of [3H]LSD from human recombinant 5HT6 receptor expressed in HEK293-EBNA cells; type: cell-based
Chain of 5-hydroxytryptamine receptor 6 (P50406 whole entry): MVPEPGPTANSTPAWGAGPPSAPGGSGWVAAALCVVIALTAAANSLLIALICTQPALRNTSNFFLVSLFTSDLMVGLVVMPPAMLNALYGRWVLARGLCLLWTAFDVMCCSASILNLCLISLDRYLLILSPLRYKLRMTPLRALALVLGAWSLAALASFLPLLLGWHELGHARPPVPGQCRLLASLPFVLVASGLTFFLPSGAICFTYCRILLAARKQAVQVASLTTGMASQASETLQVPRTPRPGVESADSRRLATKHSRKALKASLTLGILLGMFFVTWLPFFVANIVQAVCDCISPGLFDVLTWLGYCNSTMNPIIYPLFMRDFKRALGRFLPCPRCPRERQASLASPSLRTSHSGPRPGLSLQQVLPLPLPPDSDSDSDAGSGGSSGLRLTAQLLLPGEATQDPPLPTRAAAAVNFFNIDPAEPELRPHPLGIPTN

[16] = species: Homo sapiens; assay: Selectivity for human recombinant 5HT5A receptor over human recombinant 5HT2A receptor
[17] = species: Homo sapiens; assay: Selectivity for human recombinant 5HT5A receptor over human 5HT3 receptor
[18] = species: Homo sapiens; assay: Selectivity for human recombinant 5HT5A receptor over human recombinant 5HT6 receptor
[19] = species: Homo sapiens; assay: Selectivity for human recombinant 5HT5A receptor over human recombinant 5HT1D receptor

T1 sequence (P47898 whole entry): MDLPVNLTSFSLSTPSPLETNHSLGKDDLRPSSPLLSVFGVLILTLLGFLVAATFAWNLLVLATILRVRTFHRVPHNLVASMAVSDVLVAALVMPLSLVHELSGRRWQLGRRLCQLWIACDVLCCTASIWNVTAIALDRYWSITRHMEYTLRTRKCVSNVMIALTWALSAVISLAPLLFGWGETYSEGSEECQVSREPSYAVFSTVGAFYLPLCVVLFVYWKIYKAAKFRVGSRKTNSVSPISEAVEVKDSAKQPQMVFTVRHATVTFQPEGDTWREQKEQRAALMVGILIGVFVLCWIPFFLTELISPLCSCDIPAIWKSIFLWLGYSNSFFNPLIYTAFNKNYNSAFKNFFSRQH

| SMILES | Ki [3] [nM] | Ki [6] [nM] | Ki [7] [nM] | Ki [8] [nM] | Ki [12] [nM] | further results |
| --- | --- | --- | --- | --- | --- | --- |
| COc1cccc2c1N=C(N)NC2 |  |  |  |  | 97 |  |
| CCCC1NC(N)=Nc2ccccc21 (stereo not given) |  |  |  |  | 805 |  |
| NC1=Nc2ccc(Cl)c(Cl)c2CN1 | 294 | 208 | 1260 | 1080 | 43 | Ki [13]: 172 nM; Ki [14]: 434 nM; Ki [15]: 1160 nM |
| NC1=Nc2cccc(F)c2CN1 |  |  |  |  | 550 |  |
| NC1=Nc2ccc(Cl)cc2CN1 |  |  |  |  | 807 |  |
| Cc1ccc2c(c1)N=C(N)NC2 |  |  |  |  | 274 |  |
| CC1(C)NC(N)=Nc2ccccc21 |  |  |  |  | 1170 |  |
| CN(C)C1=Nc2ccccc2CN1 |  |  |  |  | 2800 |  |
| CN1Cc2ccccc2N=C1N |  |  |  |  | > 10000 |  |
| NC1=Nc2cc(Cl)ccc2CN1 |  |  |  |  | 347 |  |
| CCC1NC(N)=Nc2ccccc21 (stereo not given) |  |  |  |  | 24 |  |
| NC1=Nc2cccc(Cl)c2CN1 [listing 1 of 2 here] |  |  |  |  |  | Ki ([12]; hek293-ebna): 99 nM |
| Cc1ccc2c(c1)CNC(N)=N2 |  |  |  |  | 882 |  |
| NC1=Nc2c(F)cccc2CN1 |  |  |  |  | 1990 |  |
| NC1=Nc2ccccc2CN1 |  |  |  |  | 658 |  |
| Cc1cccc2c1N=C(N)NC2 |  |  |  |  | 463 |  |
| COc1ccc2c(c1)N=C(N)NC2 |  |  |  |  | 1380 |  |
| NC1=Nc2cc(F)ccc2CN1 |  |  |  |  | 647 |  |
| NC1=Nc2ccc(F)cc2CN1 |  |  |  |  | 911 |  |

More lines, main results first:

| Ki [3] [nM] | Ki [6] [nM] | Ki [7] [nM] | Ki [8] [nM] | Ki [12] [nM] | SMILES | further results |
| --- | --- | --- | --- | --- | --- | --- |
| 15.9 | 152 | 1270 | 192 |  | CC1NC(N)=Nc2cccc(Cl)c21 (stereo not given) | Kb [1]: 3.02 nM; fraction unbound [2]: 0.16; inhibition [4]: > 60%; Ki [5]: 1100 nM; inhibition [9]: > 60%; IC50 [10]: > 400 nM; IC50 [11]: > 400 nM |
|  |  |  |  | 145 | Cc1cccc2c1CNC(N)=N2 |  |
| 8.7 | 26 | 260 | 181 |  | CC1NC(N)=Nc2ccc(Cl)c(Cl)c21 (stereo not given) | Ratio Ki [16]: > 30; Ratio Ki [17]: > 30; Ratio Ki [18]: > 30; Ki [5]: 8 nM |
| 8.2 | 556 | 446 | 32 |  | COc1cccc2c1N=C(N)NC2C (stereo not given) | Ratio Ki [16]: > 30; Ratio Ki [17]: > 30; Ratio Ki [18]: > 30 |
|  |  |  |  | 892 | NC1=Nc2c(Cl)cccc2CN1 |  |
| 2.5 | 19 | 143 | 105 |  | COc1cc(Cl)c(C)c2c1N=C(N)NC2C (stereo not given) | Ratio Ki [16]: > 30; Ratio Ki [17]: > 30; Ratio Ki [18]: > 30 |
| 97.4 | 380 | > 10000 | 1080 | 84.4 | CCC1NC(N)=Nc2cccc(Cl)c21 (stereo not given) |  |
| 2.4 | 970 | 160 | 669 |  | CNC1=Nc2c(OC(C)C)cccc2C(C)N1 (stereo not given) | Ratio Ki [19]: 7; Ratio Ki [16]: > 30; Ratio Ki [17]: > 30; Ratio Ki [18]: > 30 |
| 15.3 | 235 | 1460 | 389 |  | CNC1=Nc2cccc(Cl)c2C(C)N1 (stereo not given) | Kb [1]: 7.41 nM; Ratio Ki [16]: > 30; Ratio Ki [17]: > 30; Ratio Ki [18]: > 30 |
| 793 | 658 | 3590 | 1700 | 99 | NC1=Nc2cccc(Cl)c2CN1 [listing 2 of 2 here] | Ki [13]: 1050 nM; Ki [14]: 1160 nM; Ki [15]: > 10000 nM |
| 12.4 | 74 | 1160 | 339 | 22.9 | COc1c(Cl)ccc2c1C(C)NC(N)=N2 (stereo not given) |  |
| 2.4 | 74 | 966 | 91 | 6.5 | CC1NC(N)=Nc2c(Cl)ccc(Cl)c21 (stereo not given) | Ratio Ki [16]: > 30; Ratio Ki [17]: > 30; Ratio Ki [18]: > 30 |
|  |  |  |  | 38 | CC1NC(N)=Nc2ccccc21 (stereo not given) |  |
| 1 | 488 | 70 | 265 |  | CC(C)Oc1cccc2c1N=C(N)NC2C (stereo not given) | Ratio Ki [19]: 7; Ratio Ki [16]: > 30; Ratio Ki [17]: > 30; Ratio Ki [18]: > 30 |
| 73 | 155 | 1270 | 765 | 26.5 | CCC1NC(N)=Nc2ccc(Cl)c(Cl)c21 (stereo not given) |  |
| 13.2 | 94 | 454 | 246 |  | CNC1=Nc2ccc(Cl)c(Cl)c2C(C)N1 (stereo not given) | Ratio Ki [16]: > 30; Ratio Ki [17]: > 30; Ratio Ki [18]: > 30 |
|  |  |  |  | 1790 | CNC1=Nc2ccccc2CN1 |  |

— ChEMBL document CHEMBL1141581, “Cyclic guanidines as dual 5-HT5A/5-HT7 receptor ligands: structure-activity relationship elucidation” (Bioorg Med Chem Lett, 2008)
